Structures can show the parent of a compound that is named as a salt. Where two headings read alike, the source gives them in different places.
Assays:
Format in all cases: biochemical
DAT = DAT (Rattus norvegicus, UniProt P23977); assay: DA release assay (synaptosomes, [3H]MPP+); set-up: the supernatants were retained on ice (synaptosomal preparation); from tissue; host or cells: rat caudate synaptosomes
Protocol: (§1) Rat caudate (for DA release) or whole brain minus cerebellum and caudate (for NE and 5-HT release), was homogenized in ice-cold 10% sucrose containing 1 μM reserpine. Nomifensine (100 nM) and GBR12935 (100 nM) were added to the sucrose solution for [^3H]5-HT release experiments to block any potential [^3H]5-HT reuptake into NE and DA nerve terminals. For the DA release assay, 100 nM desipramine and 100 nM citalopram were added to block [^3H]MPP^+ uptake into NE and 5-HT nerves. For the NE release assay, 50 nM GBR12935 and 100 nM citalopram were added to block [^3H]MPP^+ uptake into DA and 5-HT nerves. After 12 strokes with a Potter-Elvehjem homogenizer, homogenates were centrifuged at 1000×g for 10 min at 0-4° C. and the supernatants were retained on ice (synaptosomal preparation).
(§2) After incubation to steady state, 850 μl of synaptosomes preloaded with [^3H]ligand were added to 12×75 mm polystyrene test tubes that contained 150 μl test drug in uptake buffer plus 1 mg/ml BSA. After 5 min (^3H]5-HT) or 30 min (NE and DA assays) the release reaction was terminated by dilution with 4 ml wash buffer (10 mM Tris-HCl pH 7.4 containing 0.9% NaCl at 25° C.) followed by rapid vacuum filtration over Whatman GF/B filters using a Brandel Harvester. The filters were rinsed twice with 4 ml wash buffer using the Brandel Harvester, and the retained tritium was counted by a Taurus liquid scintillation counter at 40% efficiency after an overnight extraction in 3 ml Cytoscint (ICN).
(§3) In substrate reversal experiments, statistical significance was determined using the Student's t-test.

NET = target: T1, NET (Rattus norvegicus, UniProt Q63380); assay: NE release assay (synaptosomes, [3H]MPP+); conditions: for NE Rel (%): % EC50 of release
T1 construct: the supernatants were retained on ice (synaptosomal preparation); from tissue; host or cells: rat whole brain minus cerebellum and caudate, synaptosomes
Protocol: as §1, §2, §3

SERT = SERT (Rattus norvegicus, UniProt P31652); assay: 5-HT release assay (synaptosomes, [3H]5-HT); set-up: the supernatants were retained on ice (synaptosomal preparation); from tissue; host or cells: rat whole brain minus cerebellum and caudate, synaptosomes; conditions: for 5HT Rel (%): Table 4, % EC50 of release
Protocol: as §1, §2, §3

SERT, sequence (P31652 whole entry): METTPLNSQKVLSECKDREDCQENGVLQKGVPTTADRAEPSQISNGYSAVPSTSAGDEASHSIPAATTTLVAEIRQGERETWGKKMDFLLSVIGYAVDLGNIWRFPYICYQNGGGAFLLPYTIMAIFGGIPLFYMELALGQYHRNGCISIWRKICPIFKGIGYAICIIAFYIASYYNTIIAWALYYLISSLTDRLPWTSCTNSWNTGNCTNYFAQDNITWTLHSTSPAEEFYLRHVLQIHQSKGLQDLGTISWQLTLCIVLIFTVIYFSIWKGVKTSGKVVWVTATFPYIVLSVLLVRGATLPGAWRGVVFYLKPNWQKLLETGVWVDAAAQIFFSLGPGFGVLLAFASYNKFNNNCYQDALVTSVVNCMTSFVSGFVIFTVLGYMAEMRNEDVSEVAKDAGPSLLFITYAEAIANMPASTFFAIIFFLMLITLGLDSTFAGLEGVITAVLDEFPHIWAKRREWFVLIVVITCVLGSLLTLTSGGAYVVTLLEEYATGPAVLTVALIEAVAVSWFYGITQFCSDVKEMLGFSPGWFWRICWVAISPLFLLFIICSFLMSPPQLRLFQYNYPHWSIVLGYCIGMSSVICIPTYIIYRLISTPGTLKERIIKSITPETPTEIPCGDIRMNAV
DAT, sequence (P23977 whole entry): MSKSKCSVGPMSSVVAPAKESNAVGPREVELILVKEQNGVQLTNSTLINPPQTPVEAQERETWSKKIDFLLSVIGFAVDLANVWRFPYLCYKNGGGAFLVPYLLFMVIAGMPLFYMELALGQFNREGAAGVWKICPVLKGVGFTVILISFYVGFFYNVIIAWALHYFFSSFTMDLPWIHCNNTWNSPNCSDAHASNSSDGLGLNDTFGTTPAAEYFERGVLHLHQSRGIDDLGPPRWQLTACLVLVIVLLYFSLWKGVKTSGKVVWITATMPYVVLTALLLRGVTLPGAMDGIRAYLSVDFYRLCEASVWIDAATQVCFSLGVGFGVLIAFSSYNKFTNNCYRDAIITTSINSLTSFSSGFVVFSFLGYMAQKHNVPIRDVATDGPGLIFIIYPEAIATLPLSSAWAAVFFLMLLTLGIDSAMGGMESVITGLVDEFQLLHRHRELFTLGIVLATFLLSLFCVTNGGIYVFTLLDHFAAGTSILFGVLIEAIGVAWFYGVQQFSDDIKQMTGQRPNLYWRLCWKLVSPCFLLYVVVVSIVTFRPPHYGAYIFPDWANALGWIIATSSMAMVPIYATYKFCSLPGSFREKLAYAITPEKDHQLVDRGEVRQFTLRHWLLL
T1 sequence (Q63380 1-617): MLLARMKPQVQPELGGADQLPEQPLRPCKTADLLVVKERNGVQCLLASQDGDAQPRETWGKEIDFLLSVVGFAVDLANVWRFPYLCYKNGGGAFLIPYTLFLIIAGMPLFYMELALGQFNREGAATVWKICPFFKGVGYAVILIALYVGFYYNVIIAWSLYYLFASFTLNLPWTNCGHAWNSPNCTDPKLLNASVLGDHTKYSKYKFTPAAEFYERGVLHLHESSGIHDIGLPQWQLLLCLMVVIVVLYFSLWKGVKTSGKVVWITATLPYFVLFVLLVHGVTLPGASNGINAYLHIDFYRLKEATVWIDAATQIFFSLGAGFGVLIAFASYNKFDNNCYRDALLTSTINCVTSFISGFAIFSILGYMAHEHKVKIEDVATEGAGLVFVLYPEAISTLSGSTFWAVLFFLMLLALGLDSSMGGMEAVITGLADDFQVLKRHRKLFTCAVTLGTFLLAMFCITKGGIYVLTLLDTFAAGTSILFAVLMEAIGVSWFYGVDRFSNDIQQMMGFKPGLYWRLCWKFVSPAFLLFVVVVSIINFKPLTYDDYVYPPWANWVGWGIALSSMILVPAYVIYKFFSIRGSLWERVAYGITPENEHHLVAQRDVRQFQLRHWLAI

SMILES	DA Rel (%) (DAT; Table 4, % EC50 of release)	NE Rel (%) (NET; Table 4)	5HT Rel (%) (SERT)	DA Rel (%) (DAT; Table 5)	further results
CC1NCCOC1c1ccccc1 (single isomer, unassigned; (-)) [(−)-isomer, reference compound]					DA releaser activity (in words) (DAT): active as a releaser, but is not as potent
C[C@H]1NCCOC1c1cccc(F)c1 (stereo in doubt) [PAL593, 2-(3-fluoro-phenyl)-3-methyl-morpholine]					EC50 (NET; NE Rel (EC50), Table 4): 30 nM; EC50 (DAT): 43 nM; EC50 (SERT): 2560 nM
C[C@H]1CO[C@@H](c2ccccc2)CN1 [PAL 730, (2S,5S)-5-Methyl-2-phenyl-morpholine]					EC50 (NET): 79 nM; EC50 (DAT): 212 nM; EC50 (SERT): 107 nM
C[C@H]1CO[C@@H](c2cccc(Cl)c2)CN1 [PAL 738, (2S,5S)-2-(3-Chloro-phenyl)-5-methyl-morpholine]					EC50 (NET): 65 nM; EC50 (DAT): 58 nM; EC50 (SERT): 23 nM
Cc1ccc(C2OCCNC2C)cc1 (centres unmarked) [PAL 747, 3-Methyl-2-(4′-Tolyl)morpholine fumarate]	91%				
CC1NCCOC1c1ccc(F)cc1.CC1NCCOC1c1ccc(F)cc1.O=C(O)/C=C/C(=O)O (centres unmarked) [PAL 748, 3-Methyl-[(4′-Fluoro)-2-Phenyl]morpholine (0.5 fumarate)]	98%	93%	94%		
CC1NCCOC1c1ccc(Cl)cc1.CC1NCCOC1c1ccc(Cl)cc1.O=C(O)/C=C/C(=O)O (centres unmarked) [PAL 749, 3-Methyl-[(4′-Chloro)-2-Phenyl]morpholine (0.5 fumarate)]	88%	93%	76%		
COc1ccc(C2OCCNC2C)cc1.Cl (centres unmarked) [PAL 751, 3-Methyl-[(4′-Methoxy)-2-Phenyl]morpholine hydrochloride]	50%	84%	64%		
CC1NCCOC1c1ccc(C#N)cc1.CC1NCCOC1c1ccc(C#N)cc1.O=C(O)/C=C/C(=O)O (centres unmarked) [PAL 772, 3-Methyl-[(4′-Cyano)-2-Phenyl]morpholine (0.5 fumarate)]	0%	100%	53%		
Cc1cccc(C2OCCNC2C)c1.Cc1cccc(C2OCCNC2C)c1.O=C(O)/C=C/C(=O)O (centres unmarked) [PAL 773, 3-Methyl-2-(3′-Tolyl)morpholine (0.5 fumarate)]	98%	80%	82%		
CC1NCCOC1c1cccc(O)c1.Cl (centres unmarked) [PAL 780, 3-Methyl-[(3′-Hydroxy)-2-Phenyl]morpholine hydrochloride]	97%	100%	70%		
COc1cccc([C@H]2CN[C@@H](C)CO2)c1 [PAL 880, (2S,5S)-2-(3-Methoxy-phenyl)-5-methyl-morpholine]				56%	
Cc1cccc([C@H]2CN[C@@H](C)CO2)c1 [PAL 886, (2S,5S)-5-Methyl-2-m-tolyl-morpholine]				86%	
C[C@H]1CO[C@@H](c2cccc(F)c2)CN1 [PAL 890, (2S,5S)-2-(3-Fluoro-phenyl)-5-methyl-morpholine]				96%	
C[C@H]1CO[C@@H](c2cccc(C(F)(F)F)c2)CN1 [PAL 895, (2S,5S)-5-Methyl-2-(3-trifluoromethyl-phenyl)-morpholine]				45%	
C[C@H]1CO[C@@H](c2ccc(F)cc2)CN1 [PAL 903, (2S,5S)-2-(4-Fluoro-phenyl)-5-methyl-morpholine]				65%	
C[C@H]1CO[C@@H](c2ccc(C(F)(F)F)cc2)CN1 [PAL 910, (2S,5S)-5-Methyl-2-(4-trifluoromethyl-phenyl)-morpholine]				15%	
